Test system: Quadruplex DNA
Assay: Binding affinity to c-myc G-quadruplex DNA (unknown origin) assessed as increase in melting temperature at 50 uM by CD-spectrometric analysis
Format: nucleic-acid assay

Cc1ccc(NC(=O)c2c(C)oc3ccc(O)c(CN4CCCCCC4)c23)cc1
ΔTm: 2.1 °C

Reference: ChEMBL document CHEMBL4425083, “Quadruplex Nucleic Acids as Novel Therapeutic Targets” (J Med Chem, 2016)
